These compounds were tested on A375P cell line (melanoma) (assay: Proliferation inhibition activity against A375P cell line (MTT assay)). Settings: A375P melanoma cells, MTT assay; read-out: A375P (GI50).
Format: cell-based
Method: Measurement of Proliferation Inhibition Activity Against A375P Cell Line (Melanoma)
An A375P cell line purchased from ATCC was cultured in a DMEM medium [containing 10% FBS, 1% penicillin/streptomycin] at 37° C. in the presence of 5% CO2. The cultured A375P cell line was taken using 0.05% trypsin-0.02% EDTA, and seeded into a 96-well plate at a density of 5×10^3 cells per well.
Cell viability was measured using an MTT [3-(4,5-dimethylthiazol-2-yl)-2,5-diphenyltetrazolium bromide] assay (CellTiter 96 Assay, Promega) as follows. 15 μl of dye was placed per well, the cells were cultured for 2 hours, and then treated with 100 μl of a stop solution, and after 24 hours, absorbance was measured. One day after plating, they were treated with compounds. For treatment with compounds, […] of stock was prepared, and serially diluted to one-third in dimethyl sulfoxide (DMSO) to prepare a 12-point test compound plate, and 0.5 μl was added (final concentration DMSO 0.5%).
In the following Tables 1 to 3, in a case of GI50 being 10 to 30 μM, it was indicated as (+), in a case of it being 1 to 10 μM, it was indicated as (++), and in case of being less than 1 μM, it was indicated as (+++).

`Cc1c(C)c2c(c(C)c1O)CC[C@](C)(C(=O)Nc1cccc(C3=Nc4cscc4NC(=O)C3)c1)O2` [Example 38, (R)-6-hydroxy-2,5,7,8-tetramethyl-N-(3-(2-oxo-2,3-dihydro-1H-thieno[3,4-b][1,4]diazepine-4-yl)phenyl)chroman-2-carboxamide] and `Cc1cc(C)cc(C(=O)Nc2cccc(C3=Nc4cscc4NC(=O)C3)c2)c1` [Example 34, 3,5-dimethyl-N-(3-(2-oxo-2,3-dihydro-1H-thieno[3,4-b][1,4]diazepine-4-yl)phenyl)benzamide] fall in the same range of GI50: 10 to 30 µM for the first, 10 to 30 µM for the second.

`O=C1CC(c2cccc(NC(=O)C(c3ccc(Cl)cc3)c3ccc(Cl)cc3)c2)=Nc2cscc2N1` [Example 26, 2,2-bis(4-chlorophenyl)-N-(3-(2-oxo-2,3-dihydro-1H-thieno[3,4-b][1,4]diazepine-4-yl)phenyl)acetamide] and `O=C1CC(c2ccc(NC(=O)C(c3ccc(Cl)cc3)c3ccc(Cl)cc3)cc2)=Nc2cscc2N1` [Example 9, 2,2-bis(4-chlorophenyl)-N-(4-(2-oxo-2,3-dihydro-1H-thieno[3,4-b][1,4]diazepine-4-yl)phenyl)acetamide] fall in the same range of GI50: 10 to 30 µM for the first, 10 to 30 µM for the second.

`CC(=O)N1CCC(C(=O)Nc2ccc(C3=Nc4cscc4NC(=O)C3)cc2)CC1` [Example 8, 1-acetyl-N-(4-(2-oxo-2,3-dihydro-1H-thieno[3,4-b][1,4]diazepine-4-yl)phenyl)piperidine-4-carboxamide] and `O=C1CC(c2ccc(NC(=O)c3cnccn3)cc2)=Nc2cscc2N1` [Example 11, N-(4-(2-oxo-2,3-dihydro-1H-thieno[3,4-b][1,4]diazepine-4-yl)phenyl)pyrazine-2-carboxamide] fall in the same range of GI50: 10 to 30 µM for the first, 10 to 30 µM for the second.

Compared with `O=C1CC(c2cccc(NC(=O)Nc3ccc(Cl)c(C(F)(F)F)c3)c2)=Nc2cscc2N1` [Example 46, 1-(4-chloro-3-(trifluoromethyl)phenyl)-3-(3-(2-oxo-2,3-dihydro-1H-thieno[3,4-b][1,4]diazepine-4-yl)phenyl)urea], `O=C1CC(c2ccc(NC(=O)Nc3ccc(Cl)c(C(F)(F)F)c3)cc2)=Nc2cscc2N1` [Example 39, 1-(4-chloro-3-(trifluoromethyl)phenyl)-3-(4-(2-oxo-2,3-dihydro-1H-thieno[3,4-b][1,4]diazepine-4-yl)phenyl)urea] is lower in GI50: 1 to 10 µM for the first, under 1 µM for the second.

`N#Cc1ccccc1Sc1ccccc1C(=O)Nc1cccc(C2=Nc3cscc3NC(=O)C2)c1` [Example 32, 2-(2-cyanophenylthio)-N-(3-(2-oxo-2,3-dihydro-1H-thieno[3,4-b][1,4]diazepine-4-yl)phenyl)benzamide] and `N#Cc1ccccc1Sc1ccccc1C(=O)Nc1ccc(C2=Nc3cscc3NC(=O)C2)cc1` [Example 15, 2-(2-cyanophenylthio)-N-(4-(2-oxo-2,3-dihydro-1H-thieno[3,4-b][1,4]diazepine-4-yl)phenyl)benzamide] fall in the same range of GI50: 10 to 30 µM for the first, 10 to 30 µM for the second.

`O=C1CC(c2ccc(NC(=O)Nc3ccccc3F)cc2)=Nc2cscc2N1` [Example 45, 1-(2-fluorophenyl)-3-(4-(2-oxo-2,3-dihydro-1H-thieno[3,4-b][1,4]diazepine-4-yl)phenyl)urea] and `O=C1CC(c2cccc(NC(=O)Nc3ccccc3F)c2)=Nc2cscc2N1` [Example 52, 1-(2-fluorophenyl)-3-(3-(2-oxo-2,3-dihydro-1H-thieno[3,4-b][1,4]diazepine-4-yl)phenyl)urea] fall in the same range of GI50: 10 to 30 µM for the first, 10 to 30 µM for the second.

`O=C1CC(c2cccc(NC(=O)c3cnccn3)c2)=Nc2cscc2N1` [Example 28, N-(3-(2-oxo-2,3-dihydro-1H-thieno[3,4-b][1,4]diazepine-4-yl)phenyl)pyrazine-2-carboxamide] and `O=C1CC(c2cccc(NC(=O)c3ccncc3)c2)=Nc2cscc2N1` [Example 27, N-(3-(2-oxo-2,3-dihydro-1H-thieno[3,4-b][1,4]diazepine-4-yl)phenyl)isonicotinamide] fall in the same range of GI50: 10 to 30 µM for the first, 10 to 30 µM for the second.

`O=C1CC(c2ccc(NC(=O)c3ccc(N4CCOCC4)c(C(F)(F)F)c3)cc2)=Nc2cscc2N1` [Example 4, 4-morpholino-N-(4-(2-oxo-2,3-dihydro-1H-thieno[3,4-b][1,4]diazepine-4-yl)phenyl)-3-(trifluoromethyl)benzamide] and `O=C1CC(c2ccc(NC(=O)c3ccc(Cl)c(C(F)(F)F)c3)cc2)=Nc2cscc2N1` [Example 1, 4-chloro-N-(4-(2-oxo-2,3-dihydro-1H-thieno[3,4-b][1,4]diazepine-4-yl)phenyl)-3-(trifluoromethyl)benzamide] fall in the same range of GI50: 1 to 10 µM for the first, 1 to 10 µM for the second.

`O=C1CC(c2ccc(NC(=O)c3ccccc3-c3ccccc3)cc2)=Nc2cscc2N1` [Example 6, N-(4-(2-oxo-2,3-dihydro-1H-thieno[3,4-b][1,4]diazepine-4-yl)phenyl)biphenyl-2-carboxamide] and `O=C1CC(c2cccc(NC(=O)c3ccccc3-c3ccccc3)c2)=Nc2cscc2N1` [Example 23, N-(3-(2-oxo-2,3-dihydro-1H-thieno[3,4-b][1,4]diazepine-4-yl)phenyl)biphenyl-2-carboxamide] fall in the same range of GI50: 10 to 30 µM for the first, 10 to 30 µM for the second.

`O=C1CC(c2ccc(NC(=O)c3ccncc3)cc2)=Nc2cscc2N1` [Example 10, N-(4-(2-oxo-2,3-dihydro-1H-thieno[3,4-b][1,4]diazepine-4-yl)phenyl)isonicotinamide] and `Cc1cc(C)cc(C(=O)Nc2ccc(C3=Nc4cscc4NC(=O)C3)cc2)c1` [Example 17, 3,5-dimethyl-N-(4-(2-oxo-2,3-dihydro-1H-thieno[3,4-b][1,4]diazepine-4-yl)phenyl)benzamide] fall in the same range of GI50: 10 to 30 µM for the first, 10 to 30 µM for the second.

`O=C1CC(c2cccc(NC(=O)c3ccc(-c4ccccc4)cc3)c2)=Nc2cscc2N1` [Example 22, N-(3-(2-oxo-2,3-dihydro-1H-thieno[3,4-b][1,4]diazepine-4-yl)phenyl)biphenyl-4-carboxamide] and `O=C(Cc1ccc(-c2ccccc2)cc1)Nc1cccc(C2=Nc3cscc3NC(=O)C2)c1` [Example 33, 2-(biphenyl-4-yl)-N-(3-(2-oxo-2,3-dihydro-1H-thieno[3,4-b][1,4]diazepine-4-yl)phenyl)acetamide] fall in the same range of GI50: 10 to 30 µM for the first, 10 to 30 µM for the second.

First: O=C1CC(c2ccc(NC(=O)Nc3cccc(Cl)c3)cc2)=Nc2cscc2N1 [Example 41, 1-(3-chlorophenyl)-3-(4-(2-oxo-2,3-dihydro-1H-thieno[3,4-b][1,4]diazepine-4-yl)phenyl)urea]
Second: O=C1CC(c2cccc(NC(=O)Nc3ccc(Cl)cc3)c2)=Nc2cscc2N1 [Example 47, 1-(4-chlorophenyl)-3-(3-(2-oxo-2,3-dihydro-1H-thieno[3,4-b][1,4]diazepine-4-yl)phenyl)urea]
The GI50 of the first is higher: 10 to 30 µM for the first, 1 to 10 µM for the second.

First: O=C1CC(c2cccc(NC(=O)c3cc(N4CCOCC4)cc(C(F)(F)F)c3)c2)=Nc2cscc2N1 [Example 20, 3-morpholino-N-(3-(2-oxo-2,3-dihydro-1H-thieno[3,4-b][1,4]diazepine-4-yl)phenyl)-5-(trifluoromethyl)benzamide]
Second: Cc1cn(-c2cc(C(=O)Nc3cccc(C4=Nc5cscc5NC(=O)C4)c3)cc(C(F)(F)F)c2)cn1 [Example 19, 3-(4-methyl-1H-imidazol-1-yl)-N-(3-(2-oxo-2,3-dihydro-1H-thieno[3,4-b][1,4]diazepine-4-yl)phenyl)-5-(trifluoromethyl)benzamide]
The GI50 of the first is lower: under 1 µM for the first, 10 to 30 µM for the second.

`O=C(Cc1ccccc1F)Nc1cccc(C2=Nc3cscc3NC(=O)C2)c1` [Example 35, 2-(2-fluorophenyl)-N-(3-(2-oxo-2,3-dihydro-1H-thieno[3,4-b][1,4]diazepine-4-yl)phenyl)acetamide] and `O=C1CC(c2cccc(NC(=O)c3ccc(Cl)cc3)c2)=Nc2cscc2N1` [Example 30, 4-chloro-N-(3-(2-oxo-2,3-dihydro-1H-thieno[3,4-b][1,4]diazepine-4-yl)phenyl)benzamide] fall in the same range of GI50: 10 to 30 µM for the first, 10 to 30 µM for the second.

First: O=C1CC(c2cccc(NC(=O)c3ccc(Cl)c(C(F)(F)F)c3)c2)=Nc2cscc2N1 [Example 18, 4-chloro-N-(3-(2-oxo-2,3-dihydro-1H-thieno[3,4-b][1,4]diazepine-4-yl)phenyl)-3-(trifluoromethyl)benzamide]
Second: O=C1CC(c2cccc(NC(=O)c3cnc4ccccc4c3)c2)=Nc2cscc2N1 [Example 37, N-(3-(2-oxo-2,3-dihydro-1H-thieno[3,4-b][1,4]diazepine-4-yl)phenyl)quinoline-3-carboxamide]
The GI50 of the first is lower: 1 to 10 µM for the first, 10 to 30 µM for the second.

`O=C(Cc1c[nH]c2ccccc12)Nc1ccc(C2=Nc3cscc3NC(=O)C2)cc1` [Example 14, 2-(1H-indol-3-yl)-N-(4-(2-oxo-2,3-dihydro-1H-thieno[3,4-b][1,4]diazepine-4-yl)phenyl)acetamide] and `O=C(Cc1ccc(-c2ccccc2)cc1)Nc1ccc(C2=Nc3cscc3NC(=O)C2)cc1` [Example 16, 2-(biphenyl-4-yl)-N-(4-(2-oxo-2,3-dihydro-1H-thieno[3,4-b][1,4]diazebine-4-yl)phenyl)acetamide] fall in the same range of GI50: 10 to 30 µM for the first, 10 to 30 µM for the second.

With `O=C1CC(c2ccc(NC(=O)Nc3ccc(Cl)c(Cl)c3)cc2)=Nc2cscc2N1` [Example 42, 1-(3,4-dichlorophenyl)-3-(4-(2-oxo-2,3-dihydro-1H-thieno[3,4-b][1,4]diazepine-4-yl)phenyl)urea] the GI50 was 1 to 10 µM.

Same assay, conditions: A375P melanoma cells, MTT assay; read-out: GI50 value against A375P

In the case of `CNC(=O)c1cc(Oc2ccc(NC(=O)Nc3ccc(Cl)c(C(F)(F)F)c3)cc2)ccn1` [Sorafenib, reference compound], the GI50 is reported as 2.74 µM.

Same assay, conditions: A375P melanoma cells, statement in words

With `O=C1CC(c2cccc(NC(=O)c3cc(N4CCOCC4)cc(C(F)(F)F)c3)c2)=Nc2cscc2N1` [Example 20, 3-morpholino-N-(3-(2-oxo-2,3-dihydro-1H-thieno[3,4-b][1,4]diazepine-4-yl)phenyl)-5-(trifluoromethyl)benzamide] the “effects against A375P” value was “significant effects”.
With `O=C1CC(c2ccc(NC(=O)Nc3ccc(Cl)c(C(F)(F)F)c3)cc2)=Nc2cscc2N1` [Example 39, 1-(4-chloro-3-(trifluoromethyl)phenyl)-3-(4-(2-oxo-2,3-dihydro-1H-thieno[3,4-b][1,4]diazepine-4-yl)phenyl)urea] the “effects against A375P” value was “significant effects”.

Source: patent publication US10174047B2, “Thienodiazepine derivatives or pharmaceutically acceptable salts thereof, and pharmaceutical composition including the same as an active ingredient” (Industry-University Cooperation Foundation Hanyang …, priority 2015, dated 2019)
